For the assay, the target named is T1, α6*nAChR (Homo sapiens, UniProt Q15825).
T1 construct: endogenous in cells; host or cells: human inducible Tregs (from naïve CD4+ T cells of PBMCs) co-cultured with autologous CD8+ T cells
It is filed as cell-based.

T1 sequence (Q15825 26-494): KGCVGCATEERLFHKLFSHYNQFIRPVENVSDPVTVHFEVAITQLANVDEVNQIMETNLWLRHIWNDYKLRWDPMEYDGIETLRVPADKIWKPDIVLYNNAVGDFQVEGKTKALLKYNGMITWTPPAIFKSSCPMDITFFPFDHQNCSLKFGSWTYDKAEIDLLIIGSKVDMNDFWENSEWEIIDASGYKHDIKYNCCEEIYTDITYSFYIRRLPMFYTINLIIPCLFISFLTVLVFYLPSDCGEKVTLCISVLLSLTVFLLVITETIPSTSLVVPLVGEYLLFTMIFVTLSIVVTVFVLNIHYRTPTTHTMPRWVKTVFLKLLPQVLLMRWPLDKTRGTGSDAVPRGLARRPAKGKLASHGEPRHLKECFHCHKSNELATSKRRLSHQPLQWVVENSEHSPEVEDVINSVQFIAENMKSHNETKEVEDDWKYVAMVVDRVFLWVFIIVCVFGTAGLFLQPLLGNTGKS

In the case of `CN1CCCC1c1cccnc1` (centres unmarked) [nicotine], the “IFNγ+CD8+ T-cells in co-culture” value is “trend of decreasing IFNγ+CD8+ T-cells”. For alpha-conotoxin PIA [[…]-conotoxin PIA], the “IFNγ+CD8+ T cells in co-culture” value is given as “trend of increasing IFNγ+CD8+ T cells”.

These data come from patent publication US20220033490A1 (priority 2018, published 2022).
